The values below come from PubChem BioAssay (NCI).

Where “and” joins values, the source holds several entries; their conditions need not be identical. Equal entries are not always repeated.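 In this assay, cells in 96-well plates receive the compound at five concentrations for 48 hours. Endpoints are linearly interpolated between the surrounding concentrations. GI50 = concentration required for 50% inhibition of growth. At the TGI there is no net growth.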 Some results are limits rather than exact numbers.

Some test systems named below: MALME-3M melanoma; SF-539 CNS; NCI-H460 lung; OVCAR-3 ovarian; HOP-62 NSCLC; ACHN renal; NCI-H23 lung; RPMI-8226 leukemia; UO-31 renal.
Holding throughout (test): growth of human tumour cells (NCI), 48 h

With `Cc1cc2c3c([n+](C)c4ccc(F)cc4c3c1)-c1cc(F)ccc1N2C`, the GI50 was 4.19 µM with MALME-3M melanoma; 3.28 µM with SF-539 CNS; 15.4 µM in the experiment with NCI-H460 lung; 12 µM in the experiment on OVCAR-3 ovarian; 9.84 µM in the experiment on HOP-62 NSCLC; 39.1 µM with ACHN renal. Also, the GI50 in the experiment on NCI-H23 lung was 9.46 µM; in the experiment on RPMI-8226 leukemia it was 5.13 µM; in the experiment on UO-31 renal, greater than 100 µM. Further, the TGI with MALME-3M melanoma is 17.2 µM; in the experiment with SF-539 CNS, 20.6 µM; in the experiment with NCI-H460 lung it was 49.5 µM; in the experiment with OVCAR-3 ovarian, 61.8 µM; with HOP-62 NSCLC, greater than 100 µM; in the experiment with ACHN renal it was greater than 100 µM. The TGI with NCI-H23 lung was 68.6 µM; in the experiment with RPMI-8226 leukemia it was 36.4 µM; in the experiment with UO-31 renal, greater than 100 µM.

`COC(=O)c1ccc(C(=O)OC)c2nc3cc(Cl)ccc3nc12`: the TGI in the experiment on MALME-3M melanoma, with SF-539 CNS, in the experiment on NCI-H460 lung, in the experiment with OVCAR-3 ovarian, in the experiment on HOP-62 NSCLC and in the experiment with ACHN renal was greater than 100 µM each time. Besides, the TGI in the experiment with NCI-H23 lung, in the experiment on RPMI-8226 leukemia and with UO-31 renal was greater than 100 µM in each case.

As to `CC(C)(C)C(=O)c1c(C(F)(F)F)n([O-])c2cc(Cl)c(Cl)cc2[n+]1=O`, the GI50 was 1.34 µM with MALME-3M melanoma; 0.563 µM with SF-539 CNS; 0.279 µM in the experiment on NCI-H460 lung; 0.125 µM in the experiment on OVCAR-3 ovarian; 1.53 µM in the experiment on HOP-62 NSCLC; 0.389 µM in the experiment with ACHN renal. Also, the GI50 was 0.849 µM in the experiment on NCI-H23 lung, 0.131 µM with RPMI-8226 leukemia and 0.403 µM with UO-31 renal. Further, the TGI with MALME-3M melanoma amounted to 2.73 µM; in the experiment with SF-539 CNS it was 1.04 µM; with NCI-H460 lung, 0.767 µM; in the experiment on OVCAR-3 ovarian it was 0.363 µM; in the experiment with HOP-62 NSCLC, 2.89 µM; with ACHN renal, 0.782 µM. In addition, the TGI in the experiment with NCI-H23 lung stood at 2.3 µM; with RPMI-8226 leukemia, 0.281 µM; in the experiment with UO-31 renal, 0.805 µM.

With `C[C@]12CC(C=O)C(=O)C(O)=C1CC[C@@H]1C2CC[C@@]2(C)C1CC[C@]2(C)O` (some centres undefined), the TGI is 22 µM in the experiment on MALME-3M melanoma; 35.1 µM in the experiment on SF-539 CNS; 87 µM with NCI-H460 lung; 64.7 µM in the experiment on OVCAR-3 ovarian; greater than 100 µM in the experiment on HOP-62 NSCLC; 51.2 µM with ACHN renal. Further, the TGI turned out to be 46.4 µM in the experiment with NCI-H23 lung, 48.8 µM in the experiment with RPMI-8226 leukemia and 51.1 µM with UO-31 renal.

Turning to `CC(=O)[CH-]C(=O)c1ccccc1.CC(=O)[CH-]C(=O)c1ccccc1.CC[C@H](/C=C/C(C)[C@H]1CCC2[C@@H]3CC=C4C[C@@H]([O-])CC[C@]4(C)C3CC[C@@]21C)C(C)C.CC[C@H](/C=C/C(C)[C@H]1CCC2[C@@H]3CC=C4C[C@@H]([O-])CC[C@]4(C)C3CC[C@@]21C)C(C)C.Cl.[Ti+4]` (some centres undefined), the GI50 in the experiment with MALME-3M melanoma was 10.5 µM; in the experiment on SF-539 CNS it was greater than 25 µM; in the experiment on NCI-H460 lung, greater than 25 µM; with OVCAR-3 ovarian it was greater than 25 µM; in the experiment on HOP-62 NSCLC, greater than 25 µM; in the experiment on ACHN renal, greater than 25 µM. In addition, the GI50 in the experiment on NCI-H23 lung, in the experiment with RPMI-8226 leukemia and in the experiment on UO-31 renal was greater than 25 µM in each case. Also, the TGI in the experiment with MALME-3M melanoma, in the experiment with SF-539 CNS, with NCI-H460 lung, with OVCAR-3 ovarian, in the experiment on HOP-62 NSCLC and with ACHN renal was greater than 25 µM in each case. Further, the TGI in the experiment on NCI-H23 lung, in the experiment on RPMI-8226 leukemia and with UO-31 renal was greater than 25 µM in each case.

`CN(C)CC1C(=O)O[C@H]2[C@H]1CC/C(COC(=O)NCc1ccc(Cn3c(=O)sn(CCCI)c3=O)cc1)=C\CC[C@@]1(C)O[C@@H]21` (some centres undefined): the GI50 in the experiment on MALME-3M melanoma is 0.836 µM; in the experiment with SF-539 CNS, 2.57 µM; in the experiment with NCI-H460 lung, 7.77 µM; in the experiment with OVCAR-3 ovarian it was 0.775 µM; with HOP-62 NSCLC, 4.23 µM; with ACHN renal, 0.861 µM. For the same compound, the GI50 is 4.56 µM with NCI-H23 lung, 1.75 µM in the experiment with RPMI-8226 leukemia and 0.775 µM in the experiment with UO-31 renal. In addition, the TGI in the experiment with MALME-3M melanoma was determined as 1.69 µM; in the experiment with SF-539 CNS, 8.75 µM; in the experiment on NCI-H460 lung it was 17.2 µM; with OVCAR-3 ovarian, 1.45 µM; in the experiment on HOP-62 NSCLC, 12.7 µM; with ACHN renal, 1.58 µM. Moreover, the results for the TGI in the experiment on NCI-H23 lung, in the experiment with RPMI-8226 leukemia and in the experiment with UO-31 renal were 12.9 µM, 6.88 µM and 1.52 µM, respectively.

Regarding `Cc1cc(-c2nc3n(c2/C=N/N=C(N)N)CCS3)c(C)s1`, the GI50 in the experiment with SF-539 CNS was 16.8 µM; with NCI-H460 lung, 19.6 µM; in the experiment with OVCAR-3 ovarian, 21.9 µM; in the experiment with HOP-62 NSCLC, 17.5 µM; with ACHN renal, 20 µM; with NCI-H23 lung, 15 µM. The GI50 in the experiment on RPMI-8226 leukemia is 14 µM; in the experiment on UO-31 renal, 17.8 µM. Besides, the TGI in the experiment on SF-539 CNS amounted to 31.3 µM; in the experiment with NCI-H460 lung, 35.7 µM; with OVCAR-3 ovarian it was 36.3 µM; in the experiment on HOP-62 NSCLC, 31.3 µM; in the experiment with ACHN renal it was 39.5 µM; with NCI-H23 lung it was 28.2 µM. For the same compound, the TGI in the experiment on RPMI-8226 leukemia was 30.7 µM; with UO-31 renal it was 36.8 µM.

In the case of `COc1cc2c3c(n(CCN4CCOCC4)c(=O)c2cc1OC)-c1ccccc1C3=O`, the GI50 in the experiment on MALME-3M melanoma was greater than 100 µM; with SF-539 CNS it was greater than 100 µM; with NCI-H460 lung, 45.1 µM; in the experiment on OVCAR-3 ovarian, greater than 100 µM; with HOP-62 NSCLC, 89.4 µM; in the experiment on ACHN renal, 35 µM. In addition, the GI50 with RPMI-8226 leukemia is 81 µM; in the experiment with UO-31 renal, 63.3 µM. The TGI with MALME-3M melanoma, with SF-539 CNS, in the experiment with NCI-H460 lung, in the experiment on OVCAR-3 ovarian, in the experiment on HOP-62 NSCLC and in the experiment with ACHN renal was greater than 100 µM each time. Further, the TGI in the experiment on RPMI-8226 leukemia and with UO-31 renal was greater than 100 µM in each case.

`COc1ccc(/C=C\c2cc(OC)c(OC)c(OC)c2)cc1OC(=O)CC(N)C(=O)O` (centres undefined): the GI50 is 0.00102 µM with MALME-3M melanoma; 0.000427 µM in the experiment on SF-539 CNS; 0.00048 µM in the experiment on NCI-H460 lung; 0.000506 µM in the experiment on OVCAR-3 ovarian; 0.000709 µM in the experiment on ACHN renal; 0.000635 µM with NCI-H23 lung. For the same compound, the GI50 in the experiment on UO-31 renal was 0.0017 µM. Besides, the TGI in the experiment on SF-539 CNS was 0.00577 µM and 0.0374 µM; with OVCAR-3 ovarian, 0.00528 µM and 0.00484 µM and 0.0193 µM; in the experiment with HOP-62 NSCLC, greater than 100 µM; in the experiment on ACHN renal it was greater than 100 µM; in the experiment with NCI-H23 lung, 0.0465 µM; in the experiment on UO-31 renal, 58.6 µM.

For `COc1cc2c3c(n([C@@H]4CCOC4)c(=O)c2cc1OC)-c1cc2c(cc1C3=O)OCO2`, the GI50 with SF-539 CNS is less than 0.01 µM; in the experiment on RPMI-8226 leukemia, 0.0127 µM; in the experiment with UO-31 renal, less than 0.01 µM. Further, the TGI in the experiment with SF-539 CNS is 0.0208 µM; in the experiment on RPMI-8226 leukemia, greater than 100 µM; in the experiment with UO-31 renal, greater than 100 µM.

Take `Cc1ccc(-c2c3c(nn2-c2ccc(S(=O)(=O)NC(=O)NC4CCCCC4)cc2)-c2ccccc2C3)cc1`: the GI50 was 9.48 µM with SF-539 CNS; 8.75 µM in the experiment with NCI-H460 lung; 17.7 µM in the experiment on OVCAR-3 ovarian; 18.8 µM in the experiment on HOP-62 NSCLC; 14.6 µM in the experiment on ACHN renal; 10.9 µM with NCI-H23 lung. Moreover, the GI50 in the experiment with RPMI-8226 leukemia was 2.44 µM; in the experiment on UO-31 renal it was 1.33 µM. For the same compound, the TGI is 21.9 µM with SF-539 CNS; 26.3 µM with NCI-H460 lung; 35.7 µM in the experiment with OVCAR-3 ovarian; 38.2 µM in the experiment with HOP-62 NSCLC; 29.5 µM in the experiment with ACHN renal; 27.1 µM in the experiment with NCI-H23 lung. In addition, the TGI amounted to 7.42 µM in the experiment with RPMI-8226 leukemia and 2.64 µM in the experiment on UO-31 renal.

Consider `O=c1cc(-c2ccccc2)oc2cc(OCCCCCN3CCOCC3)cc(O)c12`, for which the GI50 in the experiment on SF-539 CNS is greater than 100 µM; in the experiment with NCI-H460 lung, 90.1 µM; in the experiment with OVCAR-3 ovarian, greater than 100 µM; in the experiment with HOP-62 NSCLC, 10.2 µM; with ACHN renal, greater than 100 µM; with RPMI-8226 leukemia, 62.3 µM. In addition, the GI50 in the experiment with UO-31 renal was 32.7 µM. The TGI is greater than 100 µM with SF-539 CNS; greater than 100 µM in the experiment with NCI-H460 lung; greater than 100 µM in the experiment on OVCAR-3 ovarian; 23.1 µM with HOP-62 NSCLC; greater than 100 µM in the experiment with ACHN renal; greater than 100 µM in the experiment on RPMI-8226 leukemia. This compound also came in with a TGI with UO-31 renal greater than 100 µM.

Turning to `COc1ccc2c(CCCc3ccc(Cl)cc3Cl)c3[n+](cc2c1OC)CCc1cc2c(cc1-3)OCO2`, the GI50 in the experiment on NCI-H460 lung is 0.343 µM; in the experiment on ACHN renal, 1.44 µM; with NCI-H23 lung, 0.327 µM; in the experiment with UO-31 renal, 1.58 µM. Besides, the TGI in the experiment with NCI-H460 lung was determined as 1.32 µM; in the experiment with ACHN renal, 3.15 µM; in the experiment with NCI-H23 lung, 1.42 µM; in the experiment on UO-31 renal, 3.08 µM.

Turning to `CN(CCCN1C(=O)c2cccc3cc([N+](=O)[O-])cc(c23)C1=O)CCN(C)CCCN1C(=O)c2cccc3cc([N+](=O)[O-])cc(c23)C1=O`, the TGI in the experiment with MALME-3M melanoma, in the experiment with SF-539 CNS, in the experiment with NCI-H460 lung, in the experiment on OVCAR-3 ovarian, in the experiment on HOP-62 NSCLC and in the experiment with ACHN renal was greater than 39.3 µM each time. Further, the TGI with NCI-H23 lung and in the experiment with RPMI-8226 leukemia was greater than 39.3 µM throughout.

On to `O=C1NC2C3CC(OCc4ccccc4)(OCc4ccccc4)C2OC3O1` (centres undefined), for which the TGI in the experiment with MALME-3M melanoma, in the experiment with SF-539 CNS, in the experiment on OVCAR-3 ovarian, with HOP-62 NSCLC, with NCI-H23 lung and in the experiment on RPMI-8226 leukemia was greater than 50 µM in each case. Further, the TGI in the experiment with UO-31 renal was greater than 50 µM.
